Measured values from US7902249B2, “Indole derivatives substituted with long-chain alcohols and medicaments containing them” (Meiji Dairies Corporation, priority 2002, dated 2011).
Entries after “also recorded” stand apart in the source; their conditions may differ.

Legend:
human blood cells = test: Preventive effect on hemolysis in human blood cells induced by free radicals; type: cell-based; conditions: compared with control group (FIG. 2)
Description: An experiment was conducted in accordance with the method of D. Blache. FASEB J. et al. (E. Bourdon, N. Loreau & D. Blache. FABES J. “Glucose and free radicals impair the antioxidant properties of serum albumin”, 13, 233-244(1999)). The time required for 50% hemolysis (HT50) was measured and the extension of the time required for HT50 compared with that of a control group was plotted on a graph. In this experiment, Vitamin E was employed as a positive control.

[1] = system: Fetal rat neurons in primary cultures; test: Effect on neurite outgrowth and neuron survival; type: cell-based; conditions: 10^−6 and 10^−7 M, incubation for 3 days, versus control group (FIG. 1)
Description: This experiment was conducted in accordance with the method of Luu, et al. (C. Girlanda-Junges, F. Keyling-Bilger, G. Schemitt & B. Luu, “Effect of Cyclohexenonic Long Chain Fatty Alcohols on Neurite Outgrowth. Study on Structure-Activity Relationship”, Tetrahedron, 54, 7735-77481998)). Fetal rat neurons in primary cultures were treated with Compound 1 at the concentrations of 10^−6 and 10^−7 M, followed by incubation for 3 days.

[2] = system: Human neuroblastoma cells, Lan-1; test: Induction of proliferation, differentiation and apoptosis of neuroblastoma cells; type: cell-based; design: key to Apoptosis / Proliferation / Differentiation: ++++: Extremely strongly stimulated (reinforced).; +++: Very strongly stimulated (reinforced).; ++: Strongly stimulated (reinforced).; +: Stimulated (reinforced).; +/−: No change.; −: Decreased (weakened); conditions: for effects on induction of differentiation or apoptosis versus proliferation: Lan-1 cells, summary of Table 1
Source text: Human neuroblastoma cells, Lan-1 (Lan-1: a human neuroblastoma cell line with M1 and M2 muscarinic receptors conjugated with intracellular Ca^2+) were used to investigate the effects of the present compounds on the induction of proliferation, differentiation and apoptosis.

Compound	extension of the time required for 50% hemolysis (HT50) (human blood cells)	Apoptosis ([2]; Day 1, 0.1 μM)	Differentiation ([2]; Day 1, 0.1 μM)	Proliferation ([2]; Day 1, 0.1 μM)	Apoptosis ([2]; Day 1, 10 μM)	Differentiation ([2]; Day 1, 10 μM)	Proliferation ([2]; Day 1, 10 μM)	Apoptosis ([2]; Day 1, 100 μM)	Differentiation ([2]; Day 1, 100 μM)	Proliferation ([2]; Day 1, 100 μM)	Apoptosis ([2]; Day 2, 0.1 μM)	Differentiation ([2]; Day 2, 0.1 μM)	Proliferation ([2]; Day 2, 0.1 μM)	Apoptosis ([2]; Day 2, 10 μM)	Differentiation ([2]; Day 2, 10 μM)	Proliferation ([2]; Day 2, 10 μM)	Apoptosis ([2]; Day 2, 100 μM)	Differentiation ([2]; Day 2, 100 μM)	Proliferation ([2]; Day 2, 100 μM)	Apoptosis ([2]; Day 5, 0.1 μM)	also measured
OCCCCCCCCCCCCCCCCc1c[nH]c2ccccc12 [Compound 1, 3-(16-hydroxyhexadecyl)indole]	extended HT50	−	+/−	+	+/−	++	+	+	+++	+/−	−	+/−	++	+/−	+++	+	+	++++	−	−	proportion of the neurons with neurites of 50 μm or longer [1]: higher in the treated group than in the control group; melting point: 79 to 80 °C; Differentiation ([2]; Day 5, 0.1 μM): +/−; Proliferation ([2]; Day 5, 0.1 μM): +/−; Apoptosis ([2]; Day 5, 10 μM): ++; Differentiation ([2]; Day 5, 10 μM): +++; Proliferation ([2]; Day 5, 10 μM): +/−; Apoptosis ([2]; Day 5, 100 μM): +++; Differentiation ([2]; Day 5, 100 μM): +; Proliferation ([2]; Day 5, 100 μM): −; Apoptosis ([2]; Day 7, 0.1 μM): +/−; Differentiation ([2]; Day 7, 0.1 μM): +; Proliferation ([2]; Day 7, 0.1 μM): +/−; Apoptosis ([2]; Day 7, 10 μM): ++; Differentiation ([2]; Day 7, 10 μM): ++++; Proliferation ([2]; Day 7, 10 μM): +/−; Apoptosis ([2]; Day 7, 100 μM): +++; Differentiation ([2]; Day 7, 100 μM): ++; Proliferation ([2]; Day 7, 100 μM): −; effects on induction of differentiation or apoptosis versus proliferation [2]: stronger effects on induction of differentiation or apoptosis of neuroblastoma cells rather than on proliferation
OCCc1c[nH]c2ccccc12 [Compound 2, 3-(2-hydroxyethyl)indole]	extended HT50																				
OCCCCCCCCCCc1c[nH]c2ccccc12 [Compound 3, 3-(10-hydroxydecyl)indole]		−	+	+	−	+++	+/−	++	+	−	−	+	+	+	++	+/−	++	+	+/−	+/−	Differentiation ([2]; Day 5, 0.1 μM): −; Proliferation ([2]; Day 5, 0.1 μM): +; Apoptosis ([2]; Day 5, 10 μM): +; Differentiation ([2]; Day 5, 10 μM): ++; Proliferation ([2]; Day 5, 10 μM): +/−; Apoptosis ([2]; Day 5, 100 μM): ++; Differentiation ([2]; Day 5, 100 μM): +++; Proliferation ([2]; Day 5, 100 μM): +/−; Apoptosis ([2]; Day 7, 0.1 μM): +/−; Differentiation ([2]; Day 7, 0.1 μM): +/−; Proliferation ([2]; Day 7, 0.1 μM): ++; Apoptosis ([2]; Day 7, 10 μM): +; Differentiation ([2]; Day 7, 10 μM): +++; Proliferation ([2]; Day 7, 10 μM): +/−; Apoptosis ([2]; Day 7, 100 μM): ++++; effects on induction of differentiation or apoptosis versus proliferation [2]: stronger effects on induction of differentiation or apoptosis of neuroblastoma cells rather than on proliferation
OCCCCCCCCCCCc1c[nH]c2ccccc12 [Compound 4, 3-(11-hydroxyundecyl)indole]	extended HT50; also recorded: strong effect	−	−	++	−	++	+	+++	+	+/−	−	+	+	+	++	+/−	+++	−	−	−	Differentiation ([2]; Day 5, 0.1 μM): +/−; Proliferation ([2]; Day 5, 0.1 μM): +/−; Apoptosis ([2]; Day 5, 10 μM): −; Differentiation ([2]; Day 5, 10 μM): ++; Proliferation ([2]; Day 5, 10 μM): +/−; Apoptosis ([2]; Day 5, 100 μM): +; Differentiation ([2]; Day 5, 100 μM): ++++; Proliferation ([2]; Day 5, 100 μM): +; Apoptosis ([2]; Day 7, 0.1 μM): −; Differentiation ([2]; Day 7, 0.1 μM): +/−; Proliferation ([2]; Day 7, 0.1 μM): ++; Apoptosis ([2]; Day 7, 10 μM): +/−; Differentiation ([2]; Day 7, 10 μM): ++; Proliferation ([2]; Day 7, 10 μM): +/−; Apoptosis ([2]; Day 7, 100 μM): ++++; effects on induction of differentiation or apoptosis versus proliferation [2]: stronger effects on induction of differentiation or apoptosis of neuroblastoma cells rather than on proliferation
